{"source": "patent US5846986A", "about": "“Therapeutic phenoxyalkylazoles and phenoxyalkylazines” (Sanofi, priority 1997, dated 1998)", "test_system": "panel of 10 human rhinopicornavirus serotypes HRV-3, -4, -5, -9, -16, -18, -38, -66, -75 and -67 (panel B)", "experiment": "automated TCID-50 assay, HeLa cells, panel B of 10 human rhinopicornavirus serotypes", "type": "cell-based", "details": "minimum concentration required to inhibit 50% of the tested serotypes, number of serotypes tested in column N, 3 days, 33° C.", "experimental": "The MIC values were determined by an automated tissue culture infectious dose 50% (TCID-50) assay. HeLa cells in monoloyers in 96-well cluster plates were infected with a dilution of picornavirus which had been shown empirically to produce 80% to 100% cytopathic effect (CPE) in 3 days in the absence of drug. The compound to be tested was serially diluted through 10, 2-fold cycles and added to the infected cells. After a 3 day incubation at 33° C. and 2.5% carbon dioxide, the cells were fixed with a 5% solution of glutaraldehyde followed by staining with a 0.25% solution of crystal violet in water. […]\nIn the above test procedures, representative compounds of formula I were tested against some the serotypes from either a panel of fifteen human rhinopicornavirus (HRV) serotypes, (noted in the table as panel T) namely, HRV-2, -14, -1A, -1B, -6, -21, -22, -15, -25, -30, -50, -67, -89, -86 and -41 or against some of the serotypes from a panel of 10 human rhinopicornavirus serotypes namely HRV-3, -4, -5, -9, -16, -18, -38, -66, -75 and -67, (noted in the table as panel B) and the MIC value, expressed in micrograms per milliliter […], for each rhinopicornavirus serotype was determined for each picornavirus, example le is given as an example of the data. […]", "data": [{"substance": "3-Methyl-5-[3-[4-(2-methyl-tetrazol-5-yl)-2,6-dimethylphenoxy]-propyl]-thiazole [Example 11]", "values": [{"measurement": "Mic50", "value": 0.148, "unit": "µg/mL"}]}]}
